This is an account of results in patent publication US9662327B2 (AGIOS PHARMACEUTICALS, INC, priority 2011, dated 2017).

Some results are limits rather than exact numbers.

Sequence of IDH1 R132H (O75874 whole entry R132H): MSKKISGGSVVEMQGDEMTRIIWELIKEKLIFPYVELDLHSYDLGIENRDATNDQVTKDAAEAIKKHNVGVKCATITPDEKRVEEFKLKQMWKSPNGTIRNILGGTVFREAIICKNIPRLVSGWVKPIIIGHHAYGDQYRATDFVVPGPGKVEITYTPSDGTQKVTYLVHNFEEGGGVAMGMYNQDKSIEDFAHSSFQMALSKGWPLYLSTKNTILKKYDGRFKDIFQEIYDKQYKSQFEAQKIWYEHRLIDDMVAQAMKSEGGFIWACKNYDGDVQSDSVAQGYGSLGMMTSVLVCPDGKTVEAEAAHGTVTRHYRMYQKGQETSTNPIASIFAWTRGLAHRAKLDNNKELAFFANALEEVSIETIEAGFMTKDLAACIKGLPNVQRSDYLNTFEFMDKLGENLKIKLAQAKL

One assay addresses IDH1 R132H (Homo sapiens (Human), UniProt O75874, R132H). Kind of assay: Assays for IDH1 R132H Inhibitors (NADPH/aKG, resazurin detection). In kind it is biochemical. The settings on record: IDH1 R132H enzyme, Table 2; read-out: IDHR132H Activity. The procedure, abridged:
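Substrate mix held 8 uM NADPH plus 2 mM aKG; buffer was 20 mM Tris pH 7.5 with 150 mM NaCl, 10 mM MgCl2, 0.03% BSA. After 50 min room-temperature reaction, NADPH remaining was detected with 30 μM resazurin mix over 5 min.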
(In general: The colour change of resazurin is a common sign of viable cells or microbes.)
In the case of `CCC1CN(c2nc(C(C)C)c3c(c2C#N)CC(C)(C)OC3)CCN1C(=O)c1ccoc1` (stereo not drawn) [Compound 172, 6-(3-ethyl-4-(furan-3-carbonyl)piperazin-1-yl)-8-isopropyl-3,3-dimethyl-3,4-dihydro-1H-pyrano[3,4-c]pyridine-5-carbonitrile], the IC50 fell in the range of 1000 to 10000 nM.

Take `CC(C)[C@@H]1CN(c2nc(C3CC3)c3c(c2C#N)CC(C)(C)OC3)CCN1C(=O)CNC1CC1` [Compound 372, (R)-8-cyclopropyl-6-(4-(2-(cyclopropylamino)acetyl)-3-isopropylpiperazin-1-yl)-3,3-dimethyl-3,4-dihydro-1H-pyrano[3,4-c]pyridine-5-carbonitrile]: the IC50 lay within 1000 to 10000 nM.

As for `Cc1ccc(NC(=O)N2CCN(c3nc(C4CC4)c4c(c3C#N)CC(C)(C)OC4)C[C@H]2C(C)C)cc1` [Compound 301, (R)-4-(5-cyano-8-cyclopropyl-3,3-dimethyl-3,4-dihydro-1H-pyrano[3,4-c]pyridin-6-yl)-2-isopropyl-N-p-tolylpiperazine-1-carboxamide], the IC50 fell in the range of 1000 to 10000 nM.

For `COCCNC(=O)N1CCN(c2nc(C3CC3)c3c(c2C#N)CC(C)(C)OC3)C[C@H]1C(C)C` [Compound 353], the IC50 lay in the range of 500 to 1000 nM.

As for `CC(=O)OCC(C)(C)C(=O)N1CCN(c2nc(C3CC3)c3c(c2C#N)CC(C)(C)OC3)C[C@H]1C(C)C` [Compound 419, (R)-3-(4-(5-cyano-8-cyclopropyl-3,3-dimethyl-3,4-dihydro-1H-pyrano[3,4-c]pyridin-6-yl)-2-isopropylpiperazin-1-yl)-2,2-dimethyl-3-oxopropyl acetate], the IC50 is 1000 to 10000 nM.

Consider `CCOC(=O)N1CCN(c2nc(C3CC3)c3c(c2C#N)CC(C)(C)OC3)C[C@H]1C(C)C` [Compound 367], for which the IC50 fell in the range of 1000 to 10000 nM.

Regarding `CC(C)[C@@H]1CN(c2nc(C3CC3)c3c(c2C#N)CC(C)(C)OC3)CCN1C(=O)Cn1ncc2ccccc21` [Compound 405, (R)-6-(4-(2-(1H-indazol-1-yl)acetyl)-3-isopropylpiperazin-1-yl)-8-cyclopropyl-3,3-dimethyl-3,4-dihydro-1H-pyrano[3,4-c]pyridine-5-carbonitrile], the IC50 lay in the range of 1000 to 10000 nM.

As to `Cc1oncc1C(=O)N1CCN(c2nc(C(C)C)c3c(c2C#N)CC(C)(C)OC3)C[C@H]1C` [Compound 217, (R)-8-isopropyl-3,3-dimethyl-6-(3-methyl-4-(5-methylisoxazole-4-carbonyl)piperazin-1-yl)-3,4-dihydro-1H-pyrano[3,4-c]pyridine-5-carbonitrile], the IC50 lay in the range of 500 to 1000 nM.

For `CCOc1ccc(NC(=O)N2CCN(c3nc(C4CC4)c4c(c3C#N)CC(C)(C)OC4)C[C@H]2C(C)C)cc1` [Compound 282, (R)-4-(5-cyano-8-cyclopropyl-3,3-dimethyl-3,4-dihydro-1H-pyrano[3,4-c]pyridin-6-yl)-N-(4-ethoxyphenyl)-2-isopropylpiperazine-1-carboxamide], the IC50 was in the range of 1000 to 10000 nM.

Turning to `Cc1ccn(CC(=O)N2CCN(c3nc(C4CC4)c4c(c3C#N)CC(C)(C)OC4)C[C@H]2C(C)C)n1` [Compound 400, (R)-8-cyclopropyl-6-(3-isopropyl-4-(2-(3-methyl-1H-pyrazol-1-yl)acetyl)piperazin-1-yl)-3,3-dimethyl-3,4-dihydro-1H-pyrano[3,4-c]pyridine-5-carbonitrile], the IC50 is 1000 to 10000 nM.

As to `CC(C)c1nc(N2CCN(C(=O)c3cocn3)[C@H](C)C2)c(C#N)c2c1COC(C)(C)C2` [Compound 198, (R)-8-isopropyl-3,3-dimethyl-6-(3-methyl-4-(oxazole-4-carbonyl)piperazin-1-yl)-3,4-dihydro-1H-pyrano[3,4-c]pyridine-5-carbonitrile], the IC50 fell in the range of 1000 to 10000 nM.

In the case of `C[C@@H]1CN(c2nc(C3CCCCC3)c3c(c2C#N)CCOC3)CCN1C(=O)c1cocn1` [Compound 226, (R)-8-cyclohexyl-6-(3-methyl-4-(oxazole-4-carbonyl)piperazin-1-yl)-3,4-dihydro-1H-pyrano[3,4-c]pyridine-5-carbonitrile], the IC50 fell in the range of 1000 to 10000 nM.

With `Cc1nc2ccccn2c1C(=O)N1CCN(c2nc(C3CCCCC3)c3c(c2C#N)CCOC3)C[C@H]1C` [Compound 190, (R)-8-cyclohexyl-6-(3-methyl-4-(2-methylimidazo[1,2-a]pyridine-3-carbonyl)piperazin-1-yl)-3,4-dihydro-1H-pyrano[3,4-c]pyridine-5-carbonitrile], the IC50 lay within 1000 to 10000 nM.

Take `COCCC(=O)N1CCN(c2nc(C3CC3)c3c(c2C#N)CC(C)(C)OC3)CC1COC` (stereo not drawn) [Compound 403, 8-cyclopropyl-6-(3-(methoxymethyl)-4-(3-methoxypropanoyl)piperazin-1-yl)-3,3-dimethyl-3,4-dihydro-1H-pyrano[3,4-c]pyridine-5-carbonitrile]: the IC50 lay within 1000 to 10000 nM.

For the compound `CCCOC(=O)N1CCN(c2nc(C3CCCCC3)c3c(c2C#N)CCOC3)C[C@H]1C` [Compound 359, (R)-propyl 4-(5-cyano-8-cyclohexyl-3,4-dihydro-1H-pyrano[3,4-c]pyridin-6-yl)-2-methylpiperazine-1-carboxylate], the IC50 was 1000 to 10000 nM.

`CC(=O)N1CCN(c2nc(C3CC3)c3c(c2C#N)CC(C)(C)OC3)C[C@H]1C(C)C` [Compound 352]: the IC50 lay within 500 to 1000 nM.

On to `COCCC(=O)N1CCN(c2nc(C3CCC3)c3c(c2C#N)CC(C)(C)OC3)C[C@H]1C(C)C` [Compound 395, (R)-8-cyclobutyl-6-(3-isopropyl-4-(3-methoxypropanoyl)piperazin-1-yl)-3,3-dimethyl-3,4-dihydro-1H-pyrano[3,4-c]pyridine-5-carbonitrile], for which the IC50 is below 500 nM.

Consider `CC(C)c1nc(N2CCN(C(=O)c3ccco3)[C@H](c3ccccc3)C2)c(C#N)c2c1COC(C)(C)C2` [Compound 200, (R)-6-(4-(furan-2-carbonyl)-3-phenylpiperazin-1-yl)-8-isopropyl-3,3-dimethyl-3,4-dihydro-1H-pyrano[3,4-c]pyridine-5-carbonitrile], for which the IC50 was in the range of 1000 to 10000 nM.

Turning to `CCOC(=O)N1CCN(c2nc(C3CCCCC3)c3c(c2C#N)CCOC3)C[C@H]1C` [Compound 358, (R)-ethyl 4-(5-cyano-8-cyclohexyl-3,4-dihydro-1H-pyrano[3,4-c]pyridin-6-yl)-2-methylpiperazine-1-carboxylate], the IC50 fell in the range of 1000 to 10000 nM.

With `Cc1cncc(C(=O)N2CCN(c3nc(C4CC4)c4c(c3C#N)CC(C)(C)OC4)C[C@H]2C(C)C)c1` [Compound 245, (R)-8-cyclopropyl-6-(3-isopropyl-4-(5-methylnicotinoyl)piperazin-1-yl)-3,3-dimethyl-3,4-dihydro-1H-pyrano[3,4-c]pyridine-5-carbonitrile], the IC50 lay in the range of 1000 to 10000 nM.

For the compound `CCCNC(=O)N1CCN(c2nc(C3CC3)c3c(c2C#N)CC(C)(C)OC3)C[C@H]1C(C)C` [Compound 350, (R)-4-(5-cyano-8-cyclopropyl-3,3-dimethyl-3,4-dihydro-1H-pyrano[3,4-c]pyridin-6-yl)-2-isopropyl-N-propylpiperazine-1-carboxamide], the IC50 was 1000 to 10000 nM.

Take `CCOC(=O)C1CN(c2nc(C3CC3)c3c(c2C#N)CC(C)(C)OC3)CCN1C(=O)c1ccoc1` (stereo not drawn) [Compound 259, ethyl 4-(5-cyano-8-cyclopropyl-3,3-dimethyl-3,4-dihydro-1H-pyrano[3,4-c]pyridin-6-yl)-1-(furan-3-carbonyl)piperazine-2-carboxylate]: the IC50 lay within 1000 to 10000 nM.

Turning to `Cc1cc(C(=O)N2CCN(c3nc(C4CCCCC4)c4c(c3C#N)CCOC4)CC2)c(C)o1` [Compound 121, 8-cyclohexyl-6-(4-(2,5-dimethylfuran-3-carbonyl)piperazin-1-yl)-3,4-dihydro-1H-pyrano[3,4-c]pyridine-5-carbonitrile], the IC50 was 1000 to 10000 nM.

Regarding `COc1cccc(CC(=O)N2CCN(c3nc(C(C)C)c4c(c3C#N)CC(C)(C)OC4)C[C@H]2C(C)C)c1` [Compound 233, (R)-8-isopropyl-6-(3-isopropyl-4-(2-(3-methoxyphenyl)acetyl)piperazin-1-yl)-3,3-dimethyl-3,4-dihydro-1H-pyrano[3,4-c]pyridine-5-carbonitrile], the IC50 is 1000 to 10000 nM.

In the case of `CSCCC(=O)N1CCN(c2nc(C3CC3)c3c(c2C#N)CC(C)(C)OC3)CC1(C)C` [Compound 320, 8-cyclopropyl-6-(3,3-dimethyl-4-(3-(methylthio)propanoyl)piperazin-1-yl)-3,3-dimethyl-3,4-dihydro-1H-pyrano[3,4-c]pyridine-5-carbonitrile], the IC50 is 1000 to 10000 nM.

In the case of `COCC1CN(c2nc(C3CC3)c3c(c2C#N)CC(C)(C)OC3)CCN1C(=O)c1ccoc1` (stereo not drawn) [Compound 402, 8-cyclopropyl-6-(4-(furan-3-carbonyl)-3-(methoxymethyl)piperazin-1-yl)-3,3-dimethyl-3,4-dihydro-1H-pyrano[3,4-c]pyridine-5-carbonitrile], the IC50 lay in the range of 1000 to 10000 nM.

On to `COC(=O)N1CCN(c2nc(C3CC3)c3c(c2C#N)CC(C)(C)OC3)C[C@H]1C(C)C` [Compound 346, (R)-methyl 4-(5-cyano-8-cyclopropyl-3,3-dimethyl-3,4-dihydro-1H-pyrano[3,4-c]pyridin-6-yl)-2-isopropylpiperazine-1-carboxylate], for which the IC50 is below 500 nM.

Turning to `CC(C)c1nc(N2CCN(C(=O)c3ccco3)C(C)C2)c(C#N)c2c1CCCC2` (stereo not drawn) [Compound 125, 3-(4-(furan-2-carbonyl)-3-methylpiperazin-1-yl)-1-isopropyl-5,6,7,8-tetrahydroisoquinoline-4-carbonitrile], the IC50 was in the range of 1000 to 10000 nM.

Turning to `CC1CN(c2nc(C3CCCCC3)c3c(c2C#N)CCOC3)CCN1C(=O)c1ccoc1` (stereo not drawn) [Compound 133, 8-cyclohexyl-6-(4-(furan-3-carbonyl)-3-methylpiperazin-1-yl)-3,4-dihydro-1H-pyrano[3,4-c]pyridine-5-carbonitrile], the IC50 fell in the range of 1000 to 10000 nM.

The assay is the same for the next values; noted with them: IDH1 R132H enzyme, Table 3; read-out: R132H IC50.
Turning to `CCOC(=O)[C@@H]1CN(c2nc(C3CC3)c3c(c2C#N)CC(C)(C)OC3)CCN1C(C)=O` [Compound 468, (S)-ethyl 1-acetyl-4-(5-cyano-8-cyclopropyl-3,3-dimethyl-3,4-dihydro-1H-pyrano[3,4-c]pyridin-6-yl)piperazine-2-carboxylate], the IC50 fell in the range of 500 to 1000 nM.
